The supplement of paper PMC10307832

Columns and labels:
Test in all cases: relative viability (nuclei count vs DMSO), 5 days (fraction); higher = more cells survive
[1] = compound: C1=CC2=C(C=CC(=C2)C=C3C(=O)NC(=NCC4=CC=CS4)S3)N=C1 [RO-3306] + CC1(C)CCC(c2ccc(Cl)cc2)=C(CN2CCN(c3ccc(C(=O)NS(=O)(=O)c4ccc(N[C@H](CCN5CCOCC5)CSc5ccccc5)c(S(=O)(=O)C(F)(F)F)c4)cc3)CC2)C1 [Navitoclax] (partner 0.5 µM)
Method in brief: (§1)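 Relative viability equals treated-well nuclei counts divided by vehicle-well nuclei counts. Counts came from 4× images of lung cancer cell lines grown in 1536-well plates for 5 days after pin-tool dosing on the day after seeding. Dosing used one drug alone or a fixed anchor-drug dose plus five library-drug doses (not always all listed) in √10 steps, and values are medians of duplicate plates.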

[2] = compound: C1=CC2=C(C=CC(=C2)C=C3C(=O)NC(=NCC4=CC=CS4)S3)N=C1 [RO-3306] + Nc1nc2[nH]cc(CCc3ccc(C(=O)N[C@@H](CCC(=O)O)C(=O)O)cc3)c2c(=O)[nH]1 [Pemetrexed] (partner 0.2 µM)
Method in brief: as §1

[3] = compound: C1=CC2=C(C=CC(=C2)C=C3C(=O)NC(=NCC4=CC=CS4)S3)N=C1 [RO-3306] + C[C@@H](Oc1cc(-c2cnn(C3CCNCC3)c2)cnc1N)c1c(Cl)ccc(F)c1Cl [Crizotinib] (partner 1 µM)
Method in brief: as §1

[4] = compound: C1=CC2=C(C=CC(=C2)C=C3C(=O)NC(=NCC4=CC=CS4)S3)N=C1 [RO-3306] + Cc1nc(Nc2ncc(C(=O)Nc3c(C)cccc3Cl)s2)cc(N2CCN(CCO)CC2)n1 [Dasatinib] (partner 0.075 µM)
Method in brief: as §1

Cell Line | relative viability ([1]; first compound 0.01 µM) | relative viability ([1]; first compound 0.03162 µM) | relative viability ([1]; first compound 0.1 µM) | relative viability ([1]; first compound 0.3162 µM) | relative viability ([1]; first compound 1 µM) | relative viability ([2]; first compound 0.01 µM) | relative viability ([2]; first compound 0.03162 µM) | relative viability ([2]; first compound 0.1 µM) | relative viability ([2]; first compound 0.3162 µM) | relative viability ([2]; first compound 1 µM) | relative viability ([3]; first compound 0.01 µM) | relative viability ([3]; first compound 0.03162 µM) | relative viability ([3]; first compound 0.1 µM) | relative viability ([3]; first compound 0.3162 µM) | relative viability ([3]; first compound 1 µM) | relative viability ([4]; first compound 0.01 µM) | relative viability ([4]; first compound 0.03162 µM) | relative viability ([4]; first compound 0.1 µM) | relative viability ([4]; first compound 0.3162 µM) | relative viability ([4]; first compound 1 µM)
NCI-H3122 | 1.03 | 1.03 | 0.983 | 1.05 | 1.07 | 0.203 | 0.193 | 0.456 | 0.195 | 0.197 | 0.253 | 0.262 | 0.244 | 0.244 | 0.283 | 0.823 | 0.751 | 0.835 | 0.787 | 0.857
PC-3 [JPC-3] | 1.04 | 0.697 | 0.816 | 0.805 | 0.745 | 0.783 | 0.753 | 1.01 | 1.07 | 0.37 | 1.03 | 0.971 | 0.965 | 1.03 | 0.951 | 1.02 | 0.799 | 0.953 | 0.991 | 0.819
PC-14 | 1.11 |  | 1.06 | 1.19 | 1.18 | 0.135 | 0.162 | 0.137 | 0.133 | 0.176 | 0.977 | 0.841 | 1.03 | 0.864 | 0.836 | 0.239 | 0.359 | 0.232 | 0.243 | 0.212
RERF-LC-KJ | 1.36 | 1.03 | 0.815 | 0.684 | 0.997 | 0.515 | 0.48 | 0.493 | 0.459 | 0.449 | 0.848 | 1.03 | 0.797 | 0.848 | 0.95 | 0.919 | 0.667 | 0.907 | 0.881 | 0.915
SK-LU-1 | 1.08 | 0.837 | 0.774 | 0.926 | 0.832 | 1.03 | 0.918 | 0.963 | 0.949 | 0.897 | 0.991 | 0.84 | 1.03 | 0.935 | 0.716 | 0.14 | 0.177 | 0.18 | 0.198 | 0.151
SK-MES-1 | 1.36 | 1.25 | 1.22 | 1.36 | 1.2 | 1.14 | 1 | 0.981 | 0.968 | 0.938 | 1.1 | 0.867 | 0.969 | 0.991 | 1.07 | 0.341 | 0.44 | 0.344 | 0.379 | 0.348
SW 1573 | 0.838 |  | 0.892 | 0.886 | 0.966 | 0.893 | 0.744 | 0.697 | 0.9 | 0.67 | 0.879 | 0.62 | 0.771 | 0.865 | 0.606 | 0.455 |  | 0.466 | 0.497 | 0.429
